Experiments:
MCF7 cells = assay: Cell growth inhibition, lysed cell LDH assay, breast cancer cell line; assay type: cell-based; details: 50 μM Risperidone and/or 50 μM CLA, 1 μM Testosterone (T) where added, 96 hours;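 also: 100% is cells receiving no drug treatment and 0% is wells without cells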
Experimental: (§1) To determine whether Risperidone could be effective in inhibiting growth of cancer cells overexpressing HSD10, a lysed cell LDH assay was conducted using cells taken from a prostate cancer cell line, a lung cancer cell line, a breast cancer cell line, an ovarian cancer cell line, each of which was known to overexpress HSD10, and a non-cancerous cell line.
(§2) After incubation in the drug treatment for 96 hours at 37° C., 5% CO2, the supernatant was removed from all wells of cells, and cells washed with 200 μL PBS.
(§3) After removal of the PBS from the cell cultures described above, cell number was determined using a lysed cell LDH assay. Cells were lysed with 0.9% Triton-X in PBS for 2 hours at 37° C., 5% CO2 and 50 μL of this cell lysate was transferred to a fresh 96 well plate. About 50 μL of CytoTox 96 assay reagent was added to the transferred cell lysate and this mixture was incubated at room temperature in the dark for 20 minutes. After the addition of 50 μL stop reagent, the optical absorbance was determined for each incubated mixture at 492 nm. […] The mean and standard error was calculated from at least 3 wells.

PC3 cells [1] = assay: Cell growth inhibition, lysed cell LDH assay, prostate cancer cell line; assay type: cell-based;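 also: 100% is cells receiving no drug treatment and 0% is wells without cells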
Experimental: To determine whether Risperidone could be effective in inhibiting growth of cancer cells overexpressing HSD10, a lysed cell LDH assay was conducted using cells from a PC3 cell line.
PC3 cells are from a cell line derived from a hormone refractory prostate cancer and are known to overexpress HSD10. […] Cells line tests were carried out in presence and absence of testosterone for comparison. After incubation in the drug treatment for 96 hours at 37° C., 5% CO2, the supernatant was removed from all wells of cells, and cells washed with 200 μL PBS.
as §3, with “PBS,” for “PBS from the cell cultures described above,”, “assay (CytoTox 96 Non-radioactive cytotoxicity assay (LDH Assay); Promega, Co., Madison Wis.).” for “assay.”
To determine the optimal concentration of Risperidone and CLA necessary to inhibit cell growth, a lysed cell LDH assay was conducted using various concentration of Risperidone and CLA. PC3 cells were cultured and a lysed cell LDH assay was conducted as described above, except that the various drug treatments evaluated contained either 0 μM, 12.5 μM, 25 μM, or 50 μM Risperidone in combination with 0 μM, 6.25 μM, 12.5 μM, 25 μM, 50 μM, or 100 μM CLA (see Table 3).
as §3

PC3 cells [2] = assay: Cell metabolism inhibition assay (Cell titre Blue) with fatty acids; assay type: cell-based; details: 100% = undrugged media
Experimental: A cell metabolism inhibition assay was performed to determine the effect of different fatty acids on cellular metabolic rate. The fatty acids tested were α-Linolenic acid, omega 3 fatty acid (ALA), Arachidonic acid, omega 6 fatty acid (AA), 9Z, 11E conjugated Linoleic acid, omega 7 fatty acid (CLA), Docosahexaenoic acid, omega 3 fatty acid (DHA), Eicosapentaenoic acid, omega 3 fatty acid (EPA), Oleic acid, omega 9 fatty acid (OA), Ricinoleic acid, omega 9 hydroxylated fatty acid (RA).
PC3 cells are from a cell line derived from a hormone refractory prostate cancer and are known to overexpress HSD10. PC3 cells were seeded at a density of 4,000 cells per well in a 96 well plate, and incubated at 37° C., 5% CO2 for 48 hours in standard growth media (F12K nutrient media, 7% Fetal Calf Serum, 2 mM L-Glutamine, 45 mg/L ascorbic acid). The media was then removed by pipette and replaced with the appropriate drug treatment as follows: 20 μM, or 40 μM, or 60 μM, or 80 μM, or 100 μM ALA in PC3 treatment media (F12K nutrient media, 125 uM fatty acid free BSA, 2 mM L-Glutamine, 45 mg/L ascorbic acid); 20 μM, or 40 μM, or 60 μM, or 80 μM, or 100 μM AA in PC3 treatment media; 20 μM, or 40 μM, or 60 μM, or 80 μM, or 100 μM CLA in PC3 treatment media; 20 μM, or 40 μM, or 60 μM, or 80 μM, or 100 μM DHA in PC3 treatment media; 20 μM, or 40 μM, or 60 μM, or 80 μM, or 100 μM EPA in PC3 treatment media; 20 μM, or 40 μM, or 60 μM, or 80 μM, or 100 μM OA in PC3 treatment media; and 20 μM, or 40 μM, or 60 μM, or 80 μM, or 100 μM RA in PC3 treatment media. After incubation in the drug treatment for 72 hours at 37° C., 5% CO2, 50 μL Cell titre Blue Assay Reagent was added to each well and the plate return to incubation at 37° C., 5% CO2, for a further 24 hours, at which time the absorbance at 620 nm was recorded. The reduction of absorbance at 620 nm represents a higher metabolic rate, and the data below has been normalized such that 100% represents cells that have been grown in the presence of undrugged media, and 0% represents wells containing no cells.

PC-3M-luc cells = assay: Orthotopic prostate tumor mouse xenograft model; details: single drug
Experimental: Immunodeficeint male mice (athymic nude mice) were acclimated to the laboratory for at least one week prior to implantation of tumor. PC-3M-luc cells obtained directly from in vitro culture were then injected into the prostate on Day 0. Animals were divided into six groups of 12 mice each. Primary tumor size and metastases were assessed by bioluminescence measurements on day 6, 13, 20, 27, 34, and 40. On day 7 a five week treatment regime was initiated. Both individual drug and high and low dose combination were examined by administering the drugs twice daily on an individual body weight basis using a dose escalation protocol (Table 7). If tumors grew above a pre-determined level, or mice lost more than 10% of bodyweight, they were culled. The primary tumor was excised, weighed and measured. Individual organs were imaged to assess metastatic burden.

A549 cells = assay: Cell growth inhibition, lysed cell LDH assay, lung cancer cell line; assay type: cell-based; details: A549; 50 μM Risperidone and/or 50 μM CLA, 1 μM Testosterone (T) where added; 96 hours
Experimental: To determine whether Risperidone alone, or in combination with CLA could inhibit cell growth of cells taken from a lung cancer cell line overexpressing HSD10, A549 cells were seeded at a density of 2,000 cells per well in a 96 well plate, and incubated at 37° C., 5% CO2 for 48 hours in standard growth media (DMEM nutrient media, 10% Fetal Calf Serum, 2 mM L-Glutamine). The media was then removed by pipette and replaced with the appropriate drug treatment as follows: 50 μM Risperidone in A459 treatment media (DMEM nutrient media, 125 uM fatty acid free BSA, 2 mM L-Glutamine); 50 μM CLA in A459 treatment media; 50 μM Risperidone and 50 μM CLA in A459 treatment media; 50 μM Risperidone and 1 μM Testosterone in A459 treatment media; 50 μM Risperidone, 50 μM CLA, and 1 μM Testosterone in A459 treatment media. After incubation in the drug treatment for 96 hours at 37° C., 5% CO2, the supernatant was removed from all wells of cells, and cells washed with 200 μL PBS.
After removal of the PBS from the cell cultures described above, cell number was determined using a lysed cell LDH assay. Cells were lysed with 0.9% Triton-X in PBS for 2 hours at 37° C., 5% CO2 and 50 μL of this cell lysate was transferred to a fresh 96 well plate. About 50 μL of CytoTox 96 assay reagent was added to the transferred cell lysate and this mixture was incubated at room temperature in the dark for 20 minutes. After the addition of 50 μL stop reagent, the optical absorbance was determined for each incubated mixture at 492 nm. The percentage cell number was calculated by normalizing the experimental counts, where 100% is set to cells receiving no drug treatment, and 0% is set to readings from wells containing no cells. The mean and standard error was calculated from at least 3 wells.

OVCAR-3 cells = assay: Cell growth inhibition, lysed cell LDH assay, ovarian cancer cell line; assay type: cell-based; details: 50 μM Risperidone and/or 50 μM CLA, 1 μM Testosterone (T) where added, 96 hours;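 also: 100% is cells receiving no drug treatment and 0% is wells without cells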
Experimental: as §1, §2, §3

VERO cells = assay: Cell growth inhibition, lysed cell LDH assay, non-cancerous cell line; assay type: cell-based;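 as to effect on growth of cells from the non-cancerous cell line VERO: 100% is cells receiving no drug treatment and 0% is wells without cells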
Experimental: as §1, §2, §3

## CCCCCC/C=C/C=C\CCCCCCCC(=O)O [CLA, 9Z, 11E conjugated Linoleic acid]
MCF7 cells
  Percentage of Lysed Cells: 56 ± 2.6%
PC3 cells [1]; 0 μM Risperidone, 6.25 μM CLA (Table 4)
  Percentage of Lysed Cells: 96 ± 0.7%
PC3 cells [1]; 0 μM Risperidone, 12.5 μM CLA (Table 4)
  Percentage of Lysed Cells: 90 ± 2.7%
PC3 cells [1]; 0 μM Risperidone, 25 μM CLA (Table 4)
  Percentage of Lysed Cells: 112 ± 9.5%
PC3 cells [1]; 0 μM Risperidone, 50 μM CLA (Table 4)
  Percentage of Lysed Cells: 103 ± 9.3%
PC3 cells [1]; 0 μM Risperidone, 100 μM CLA (Table 4)
  Percentage of Lysed Cells: 66 ± 11.8%
PC3 cells [1]; 12.5 μM of each drug, 96 hours, 100% = no drug treatment (Table 3)
  Percentage of Lysed Cells: 109 ± 0.56%
PC3 cells [1]; 25 μM of each drug, 96 hours, 100% = no drug treatment (Table 3)
  Percentage of Lysed Cells: 112 ± 1.1%
PC3 cells [1]; 50 μM
  growth inhibition of PC3 cells: no effect alone
PC3 cells [1]; 50 μM of each drug, 96 hours, 100% = no drug treatment (Table 3)
  Percentage of Lysed Cells: 107 ± 2.4%
PC3 cells [1]; PC3, 50 μM Risperidone and/or 50 μM CLA, 1 μM Testosterone (T) where added, 96 hours (Table 5)
  Percentage of Lysed Cells: 107 ± 2.4%
PC3 cells [2]; 20 μM fatty acid
  Cellular Metabolic Activity: 86 ± 2.4%
PC3 cells [2]; 40 μM fatty acid
  Cellular Metabolic Activity: 71 ± 3.8%
PC3 cells [2]; 60 μM fatty acid
  Cellular Metabolic Activity: 59 ± 2.8%
PC3 cells [2]; 80 μM fatty acid
  Cellular Metabolic Activity: 63 ± 4.0%
PC3 cells [2]; 100 μM fatty acid
  Cellular Metabolic Activity: 67 ± 5.0%
PC-3M-luc cells; by Day 40
  body weight throughout the study: maintained a constant weight
PC-3M-luc cells; by day 34
  animal loss: about 10%
PC-3M-luc cells; calculated on Day 34, dosing per Table 7, listed as Rumenic Acid
  Tumor Growth Inhibition: 21%
PC-3M-luc cells; day 40, dosing per Table 7, listed as Rumenic Acid
  Animal Survival (overall survivorship): 45%
A549 cells
  Percentage of Lysed Cells: 4.5 ± 0.3%
OVCAR-3 cells
  Percentage of Lysed Cells: 87 ± 6.0%
VERO cells; 50 μM
  effect on growth of cells from the non-cancerous cell line VERO: neither Risperidone nor CLA had any measurable effect
VERO cells; VERO, 50 μM Risperidone and/or 50 μM CLA, 1 μM Testosterone (T) where added, 96 hours
  Percentage of Lysed Cells: 98 ± 2.7%
